We go through 21 molecules from patent publication US20260078130A1, “NAMPT MODULATORS, PREPARATIONS, AND USES THEREOF” (SIRONAX LTD., priority 2022, published 2026).

pEC50: −log10 of the molar value. Like-named read-outs stand apart in the source and are kept apart here.

Experiment [1] addresses T1, human enzyme NAMPT (full length) (Homo sapiens, UniProt P43490).
T1 construct: human enzyme NAMPT (full length)
In words: NMN fluorescence biochemical assay (stimulation of NMN synthesis by NAMPT). The settings on record: for pEC50: concentration giving half-maximal activation, read-out: Enzymatic EC50; for Enzymatic Emax: fold change of maximal activation compared to DMSO. The method, boiled down:
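Full-length human NAMPT (100 nM) was preincubated 15 min at 37 °C with compound in 50 mM Tris-HCl pH 7.5, 10 mM MgCl2, 2 mM DTT, then reacted 1 h at 37 °C with 50 μM NAM, 100 μM PRPP, 4 mM ATP (stated solution concentrations). NMN was derivatised with acetophenone/KOH then formic acid and read at Ex/Em 382/445 nm; EC50 and Emax (fold over DMSO) reported.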

For experiment [2], the system named is endogenous NAMPT in U2OS cells. The experiment is described as follows: Cellular NAD+ modulation assay (NAD/NADH-Glo, U2OS cells). It is filed as cell-based. The settings on record: Homo sapiens; for maximal fold induction: read-out: Cellular Emax. The method, then:
Certain compounds described herein were also assayed for their ability to stimulate the endogenous NAMPT in a native cellular environment in a cellular NAD^+ modulation assay. U2OS cells were grown in McCoy's 5A medium with 10% fetal bovine serum, in a humidified incubator with an atmosphere of 95% air and 5% CO2 at 37° C. The assays were initiated by plating 30 μL of U2OS cells in a culture medium with 10% fetal bovine serum, at a density of 3000 cells per well in a Corning® 384-well White/Clear Bottom Polystyrene Microplate. The plates were incubated in 37T incubators for a period of 16 hours. Test compounds with a series of concentrations in DMSO were added to the plates in a volume of 150 nL using Echo Liquid handlers. The plates are then incubated for 24 hours. The medium was removed from the wells, then 10 μL PBS was added to each well. To each well of cells in 10 μL of PBS, 10 μL of base solution with 1% DTAB was added. The plate was briefly mixed on a plate shaker to ensure homogeneity and cell lysis (5 mins). 10p L of 0.4N HCl was added per well. The plate was coved, and all samples were incubated for 15 minutes at 60° C. Then the plate was equilibrated for 10 minutes at room temperature. 10 μL of 0.5M Trizma® base was added to each well of acid-treated cells to neutralize the acid. Finally, 30 μL of NAD/NADH-Glo™ Detection Reagent was added. The plate was gently shaken to mix the samples. The plate was incubated for 40 minutes at room temperature. Luminescence was recorded using a luminometer. The potency measurements for the test compounds were quantified and represented as EC50 (concentration of a compound that gives half-maximal activation) and Emax (fold change of a compound's maximal activation compared to DMSO).

Where [3] appears, read: NMN fluorescence assay, purified human NAMPT 100 nM.
[4] abbreviates: 24 hours incubation, cellular NAD+.
The mark [5] stands for this setting: NMN synthesis by purified human NAMPT (100 nM).
[6] abbreviates: 24 hours incubation with compound.

T1 sequence (P43490 whole entry): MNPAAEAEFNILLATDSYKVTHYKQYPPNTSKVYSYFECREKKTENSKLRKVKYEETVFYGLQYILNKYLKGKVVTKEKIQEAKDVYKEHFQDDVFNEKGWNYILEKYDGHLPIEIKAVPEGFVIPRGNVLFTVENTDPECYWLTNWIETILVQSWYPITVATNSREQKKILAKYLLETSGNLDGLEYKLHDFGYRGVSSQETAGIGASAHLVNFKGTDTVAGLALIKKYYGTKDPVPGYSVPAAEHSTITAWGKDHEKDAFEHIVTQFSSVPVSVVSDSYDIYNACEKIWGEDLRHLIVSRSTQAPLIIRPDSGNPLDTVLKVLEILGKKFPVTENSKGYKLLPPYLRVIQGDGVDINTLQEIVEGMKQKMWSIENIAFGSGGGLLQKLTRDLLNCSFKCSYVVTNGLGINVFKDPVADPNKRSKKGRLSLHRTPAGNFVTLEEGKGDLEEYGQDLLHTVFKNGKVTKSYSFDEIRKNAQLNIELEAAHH

On to `CN1CC(c2ccc3c(c2)C(Cc2c(Cl)cnn2C)N(Cc2ccc4[nH]nnc4c2)C3=O)C1` (stereo not drawn) [Compound 385, 2-((1H-benzo[d][1,2,3]triazol-5-yl)methyl)-3-((4-chloro-1-methyl-1H-pyrazol-5-yl)methyl)-5-(1-methylazetidin-3-yl)isoindolin-1-one], for which the pEC50 – broadly, the EC50 on a negative log10 scale, so that one unit is a factor of ten – in experiment [1] (setting [3]) was 5.30 to 6.30; in experiment [2] (setting [4]), 4.30 to 5.30. Also, the “Enzymatic Emax” value in experiment [1] was “B (3≥B>2)”. Moreover, the maximal fold induction in experiment [2] (setting [4]) is more than 1.5.

With `Cn1ncc(Cl)c1C[C@@H]1c2ccccc2C(=O)N1C[C@H]1C[C@]2(CNC(=O)O2)C1` [Compound 405, (2s,4S)-2-(((R)-1-((4-chloro-1-methyl-1H-pyrazol-5-yl)methyl)-3-oxoisoindolin-2-yl)methyl)-5-oxa-7-azaspiro[3.4]octan-6-one], the pEC50 in experiment [1] (setting [3]) is 5.30 to 6.30; in experiment [2] (setting [4]) it was 4.30 to 5.30. For the same molecule, the “Enzymatic Emax” value in experiment [1] is “C (2≥C)”. Moreover, the maximal fold induction in experiment [2] (setting [4]) was 1.2 to 1.5.

For the molecule `O=C1c2ccccc2C(Cc2ccccc2OC(F)F)N1Cc1ccc2[nH]c(=O)oc2c1` (stereo not drawn) [Compound 210, 6-((1-(2-(difluoromethoxy)benzyl)-3-oxoisoindolin-2-yl)methyl)benzo[d]oxazol-2(3H)-one], in experiment [1] (setting [5]), the pEC50 is 5.30 to 6.30. Besides, in experiment [1], the “Enzymatic Emax” value is listed as “A (A>3)”. In experiment [2] (setting [6]), the pEC50 was 5.30 to 6.30 and the maximal fold induction is more than 1.5.

As for `Cn1ncc(Cl)c1CC1c2ccccc2CCN1CC1CC2(CNC(=O)O2)C1` (stereo not drawn) [Compound 610, 2-((1-((4-chloro-1-methyl-1H-pyrazol-5-yl)methyl)-3,4-dihydroisoquinolin-2(1H)-yl)methyl)-5-oxa-7-azaspiro[3.4]octan-6-one], the pEC50 in experiment [1] (setting [3]) is not above 5.30. In addition, the “Enzymatic Emax” value in experiment [1] is “B (3≥B>2)”. In experiment [2] (setting [4]), the pEC50 was 5.30 to 6.30 and the maximal fold induction lay within 1.2 to 1.5.

For `O=C1c2ccccc2C(Cc2ncccc2Cl)N1Cc1ccc2[nH]c(=O)oc2c1` (stereo not drawn) [Compound 159, 6-((1-((3-chloropyridin-2-yl)methyl)-3-oxoisoindolin-2-yl)methyl)benzo[d]oxazol-2(3H)-one], the pEC50 in experiment [1] (setting [5]) and in experiment [2] (setting [6]) was more than 6.30 each time. The “Enzymatic Emax” value in experiment [1] is “A (A>3)”. For the same molecule, the maximal fold induction in experiment [2] (setting [6]) was more than 1.5.

In the case of `O=C1c2ccccc2C(Cc2ncccc2Br)N1Cc1ccc(=O)[nH]c1` (stereo not drawn) [Compound 322, 3-((3-bromopyridin-2-yl)methyl)-2-((6-oxo-1,6-dihydropyridin-3-yl)methyl)isoindolin-1-one], in experiment [1] (setting [3]), the pEC50 was 5.30 to 6.30. For the same molecule, the “Enzymatic Emax” value in experiment [1] is reported as “A (A>3)”. In experiment [2] (setting [4]), the negative-log EC50 (pEC50) is 5.30 to 6.30 and the maximal fold induction was more than 1.5.

Take `CNC(=O)Nc1ccc(CN2Cc3ccccc3C2=O)cc1` [Compound 105, 1-methyl-3-(4-((1-oxoisoindolin-2-yl)methyl)phenyl)urea]: in experiment [1] (setting [5]), the pEC50 is not above 5.30. Further, the “Enzymatic Emax” value in experiment [1] is on record as “B (3≥B>2)”. Also, in experiment [2] (setting [6]), the pEC50 was 5.30 to 6.30 and the maximal fold induction is more than 1.5.

Turning to `O=C1c2ccc(N3CCCC3)cc2CN1Cc1ccc(O)cc1` [Compound 298, 2-(4-hydroxybenzyl)-5-(pyrrolidin-1-yl)isoindolin-1-one], the pEC50 in experiment [1] (setting [5]) and in experiment [2] (setting [6]) was 5.30 to 6.30 throughout. The “Enzymatic Emax” value in experiment [1] is reported as “C (2≥C)”. Besides, the maximal fold induction in experiment [2] (setting [6]) was in the range of 1.2 to 1.5.

Regarding `Cc1ccc2c(c1)C(C)N(Cc1ccc3[nH]c(=O)oc3c1)C2=O` (single isomer, unassigned) [Compound 163], in experiment [1] (setting [5]), the pEC50 was not above 5.30. Also, the “Enzymatic Emax” value in experiment [1] is recorded as “A (A>3)”. Also, in experiment [2] (setting [6]), the negative logarithm of the EC50 (pEC50) is 5.30 to 6.30 and the maximal fold induction is more than 1.5.

With `O=C1c2ccccc2C(Cc2ncccc2Br)N1Cc1cc(F)c2[nH]nnc2c1` (stereo not drawn) [Compound 329, 3-((3-bromopyridin-2-yl)methyl)-2-((7-fluoro-1H-benzo[d][1,2,3]triazol-5-yl)methyl) isoindolin-1-one], the figures for the pEC50 in experiment [1] (setting [3]) and in experiment [2] (setting [4]) were more than 6.30 and 4.30 to 5.30, respectively. Further, the “Enzymatic Emax” value in experiment [1] is recorded as “B (3≥B>2)”. Also, the maximal fold induction in experiment [2] (setting [4]) was more than 1.5.

As to `CC(c1ccc(O)cc1)N1Cc2ccccc2C1=O` (stereo not drawn) [Compound 45, 2-(1-(4-hydroxyphenyl)ethyl) isoindolin-1-one], in experiment [1] (setting [5]), the negative logarithm of the EC50 (pEC50) was not above 5.30. For the same molecule, the “Enzymatic Emax” value in experiment [1] is “B (3≥B>2)”. In experiment [2] (setting [6]), the pEC50 is 5.30 to 6.30 and the maximal fold induction lay in the range of 1.2 to 1.5.

For the molecule `CC1c2cc(CN(C)C)ccc2C(=O)N1Cc1ccc2[nH]c(=O)oc2c1` (single isomer, unassigned) [Compound 273], the pEC50 is not above 5.30 in experiment [1] (setting [5]) and 5.30 to 6.30 in experiment [2] (setting [6]). In experiment [1], the “Enzymatic Emax” value is reported as “B (3≥B>2)”. In addition, in experiment [2] (setting [6]), the maximal fold induction is 1.2 to 1.5.

With `C/C(=C\CN1C(=O)c2ccccc2C1Cc1ncccc1Br)c1c[nH]nn1` (stereo not drawn) [Compound 425, (E)-2-(3-(1H-1,2,3-triazol-4-yl)but-2-en-1-yl)-3-((3-bromopyridin-2-yl)methyl) isoindolin-1-one], the pEC50 in experiment [1] (setting [3]) is more than 6.30. Also, in experiment [1], the “Enzymatic Emax” value is listed as “B (3≥B>2)”. In experiment [2] (setting [4]), the pEC50 was more than 6.30 and the maximal fold induction is more than 1.5.

For the molecule `Cn1ncc(Cl)c1CC1c2ccccc2S(=O)(=O)N1CC1CC2(CNC(=O)O2)C1` (stereo not drawn) [Compound 540, 2-((3-((4-chloro-1-methyl-1H-pyrazol-5-yl)methyl)-1,1-dioxidobenzo[d]isothiazol-2(3H)-yl)methyl)-5-oxa-7-azaspiro[3.4]octan-6-one], the pEC50 in experiment [1] (setting [3]) and in experiment [2] (setting [4]) was more than 6.30 each time. In addition, the “Enzymatic Emax” value in experiment [1] is given as “B (3≥B>2)”. In experiment [2] (setting [4]), the maximal fold induction is more than 1.5.

For `Cc1nn(C)c(CC2c3ccccc3C(=O)N2Cc2ccc3[nH]nnc3c2)c1Cl` (stereo not drawn) [Compound 337, 2-((1H-benzo[d][1,2,3]triazol-5-yl)methyl)-3-((4-chloro-1,3-dimethyl-1H-pyrazol-5-yl)methyl)isoindolin-1-one], the pEC50 in experiment [1] (setting [3]) is more than 6.30. For the same molecule, in experiment [1], the “Enzymatic Emax” value is recorded as “A (A>3)”. In experiment [2] (setting [4]), the pEC50 is more than 6.30 and the maximal fold induction was more than 1.5.

`CC(=O)Nc1ccc(CN2Cc3ccccc3C2=O)cc1` [Compound 104, N-(4-((1-oxoisoindolin-2-yl)methyl)phenyl)acetamide]: in experiment [1] (setting [5]), the pEC50 is not above 5.30. Besides, in experiment [1], the “Enzymatic Emax” value was “B (3≥B>2)”. In experiment [2] (setting [6]), the pEC50 is 4.30 to 5.30 and the maximal fold induction was more than 1.5.

Take `Cn1nc(OC(F)F)c(Cl)c1CC1c2ccccc2C(=O)N1Cc1ccc2[nH]nnc2c1` (stereo not drawn) [Compound 397, 2-((1H-benzo[d][1,2,3]triazol-5-yl)methyl)-3-((4-chloro-3-(difluoromethoxy)-1-methyl-1H-pyrazol-5-yl)methyl)isoindolin-1-one]: the pEC50 in experiment [1] (setting [3]) is more than 6.30. The “Enzymatic Emax” value in experiment [1] is on record as “B (3≥B>2)”. Moreover, in experiment [2] (setting [4]), the pEC50 was more than 6.30 and the maximal fold induction is more than 1.5.

For the molecule `O=c1c2ccccc2ccn1Cc1ccc2[nH]nnc2c1` [Compound 7, 2-((1H-benzo[d][1,2,3]triazol-5-yl)methyl)isoquinolin-1(2H)-one], in experiment [1] (setting [5]), the pEC50 is not above 5.30. In experiment [1], the “Enzymatic Emax” value is “B (3≥B>2)”. Also, in experiment [2] (setting [6]), the pEC50 is 4.30 to 5.30 and the maximal fold induction fell in the range of 1.2 to 1.5.

With `Cc1cccnc1CC1c2ccccc2C(=O)N1Cc1ccc2[nH]c(=O)oc2c1` (stereo not drawn) [Compound 176, 6-((1-((3-methylpyridin-2-yl)methyl)-3-oxoisoindolin-2-yl)methyl)benzo[d]oxazol-2(3H)-one], the pEC50 in experiment [1] (setting [5]) was more than 6.30; in experiment [2] (setting [6]), 5.30 to 6.30. Moreover, the “Enzymatic Emax” value in experiment [1] is on record as “A (A>3)”. Also, in experiment [2] (setting [6]), the maximal fold induction is more than 1.5.

Consider `O=C1c2ccc(CN3CCOCC3)cc2C(Cc2ccccc2)N1Cc1ccc2[nH]c(=O)oc2c1` (stereo not drawn) [Compound 123, 6-((3-benzyl-5-(morpholinomethyl)-1-oxoisoindolin-2-yl)methyl)benzo[d]oxazol-2(3H)-one], for which, in experiment [1] (setting [5]), the pEC50 was 5.30 to 6.30. For the same molecule, the “Enzymatic Emax” value in experiment [1] is listed as “A (A>3)”. For the same molecule, in experiment [2] (setting [6]), the pEC50 was 5.30 to 6.30 and the maximal fold induction was more than 1.5.

For `COc1ccc(CN2C(=O)c3ccc(C4CC4)cc3C2Cc2c(C)ncnc2C#N)cn1` (stereo not drawn) [Compound 640, 5-((6-cyclopropyl-2-((6-methoxypyridin-3-yl)methyl)-3-oxoisoindolin-1-yl)methyl)-6-methylpyrimidine-4-carbonitrile], the pEC50 in experiment [1] (setting [3]) was not above 5.30; in experiment [2] (setting [4]), 5.30 to 6.30. Further, the “Enzymatic Emax” value in experiment [1] was “A (A>3)”. The maximal fold induction in experiment [2] (setting [4]) was 1.2 to 1.5.
